Molecules are shown by their SMILES.

The data set can be described thus: gradient 5% acetonitrile 3 min, to 50% in 2 min, to 85% in 15 min, held 3 min, 100 µL/min. The conditions noted are these: column: Zorbax Extend-C18 2.1 x 50 mm; eluents: water / acetonitrile, 0.1% formic acid. The method in brief: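 The mobile phases were water and acetonitrile, each with 0.1% formic acid, pumped at 100 μL/min through a Zorbax Extend-C18 column (2.1 × 50 mm, 1.8 μm). Pure standards were injected as mixtures of ~100 molecules and detected by a quadrupole time-of-flight mass spectrometer in positive and negative ionization mode. Retention time came from computationally picked adduct peaks, each inspected by hand.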
Turning to `Cc1cc2nc(C(F)(F)F)c(=O)n(C(C)C(=O)NCCCN3CCN(C)CC3)c2cc1C` (stereo not drawn), the RP-LC retention time is 652 s. To `Cc1cc(C)cc(NC(=O)N2CCC(n3cnc4ccc(C)cc4c3=O)CC2)c1` belongs 838 s; to `CCC(C)NC(=O)NCCC1CCN(S(=O)(=O)c2ccccc2)CC1` (stereo not drawn), 742 s; to `CCn1c(=O)c2c(nc(/C=C/c3ccc(OC)c(OC)c3)n2C)n(CC)c1=O`, 869 s. Next, `Cc1ccc(NC(=O)N2CCC(n3cnc4ccccc4c3=O)CC2)c(C)c1`: 751 s; `CC(C)(C)c1csc(-c2csc(S(=O)(=O)NCc3ccc(Br)cc3)c2)n1`: 1300 s. To `Cc1ccc(NC(=O)Cn2ncc3c(c2=O)N(CC2CC2)C(=O)CS3)cc1C` belongs 812 s. With `Cc1ccc(-c2noc(-c3nn(CC(=O)N4CCCC4)c4ccccc34)n2)cc1`, the RP-LC retention time is 1080 s.

Consider `COC(=O)c1c(C)[nH]c(C(=O)N2CCCC(C(=O)NCc3ccc(OC(C)C)cc3)C2)c1C` (stereo not drawn), for which the RP-LC retention time was found to be 812 s.

For the compound `CC(C)c1ccc(NC(=O)Cn2ncc3c(c2=O)N(CC2CC2)C(=O)CS3)cc1`, the RP-LC retention time was determined as 934 s. On to `CCOC(=O)c1c(S(=O)(=O)N2CCC(C(=O)Nc3ccc(CC)cc3)CC2)c(C)n(C)c1C`, for which the RP-LC retention time amounted to 943 s. Turning to `Cn1cnc2cc(-c3noc(CNC(=O)Cc4ccc(Cl)cc4)n3)ccc21`, the RP-LC retention time turned out to be 652 s. Consider `CCOC(=O)c1c(CN(C)C)n(C)c2cc(C#N)c(O)cc12`, for which the RP-LC retention time amounted to 598 s.

In the case of `CC(=O)NC(C)c1nc(-c2ccc(Cl)cc2)no1` (stereo not drawn), the RP-LC retention time came to 777 s. Take `Cc1cc(-c2nnc(C3CC3)o2)c(C)n1CC(=O)NCc1ccc(F)cc1`: the RP-LC retention time is 784 s. In turn, `CCOc1ccccc1NC(=O)N1CCN(CCNC(=O)c2ccc3c(c2)OCO3)CC1` had an RP-LC retention time of 581 s. In turn, `CC(C)CN1CCN(C(=O)c2cn3ccnc(-c4ccccc4)c3n2)CC1` displayed an RP-LC retention time of 606 s.

Consider `CCN1C(=O)c2cccnc2Sc2cc(NC(=O)c3ccc(OC)c(F)c3)ccc21`, for which the RP-LC retention time is 836 s. `CCCC(CCC)C(=O)NCCc1c[nH]c2ccc(C)cc12` gave an RP-LC retention time of 996 s.

`CCCOc1ccc(S(=O)(=O)n2cccn2)cc1C` displayed an RP-LC retention time of 986 s. In turn, `CC(NC(=O)c1cc(=O)[nH]c2ccc(Br)cc12)c1ccccc1` (stereo not drawn) had an RP-LC retention time of 769 s. In turn, `COc1ccc(-c2noc(-c3nc(C4CC4)no3)n2)cc1` showed an RP-LC retention time of 1090 s. For `O=C(NCc1cccnc1)C1CN(S(=O)(=O)c2cccnc2)CC12CCCCC2` (stereo not drawn), the RP-LC retention time worked out at 595 s. For `COc1ccc(CN2CC3(CCN(S(=O)(=O)C(C)C)CC3)C2=O)cc1`, the RP-LC retention time is 787 s. Regarding `Cc1ccc(N2C(=O)C3N=NN(Cc4nc(-c5ccccc5Br)no4)C3C2=O)cc1C` (stereo not drawn), the RP-LC retention time came out at 1030 s. Consider `CO[C@H]1CN(C2CCN(Cc3cn(C(C)C)c4ccccc34)CC2)[C@H]1c1ccncc1`, for which the RP-LC retention time came out at 590 s.

On to `Cc1cc(Cl)ccc1S(=O)(=O)N1C[C@@H](F)C[C@H]1C(=O)N1CCCCC1`, for which the RP-LC retention time is 948 s. Consider `CC(C(O)c1ccc(O)cc1)N1CCC(Cc2ccccc2)CC1` (stereo not drawn), for which the RP-LC retention time was determined as 718 s. On to `O=C(C1CC1)N1CCC2(CCCCO2)CC1`, for which the RP-LC retention time was 668 s. With `Cc1ccc(Nc2c(C(=O)N3CCOCC3)cnc3nc(C)ccc23)cc1`, the RP-LC retention time came to 598 s. In turn, `Cc1csc(-c2cc(S(=O)(=O)N3c4ccccc4CC3C)c(C)s2)n1` (stereo not drawn) came in with an RP-LC retention time of 1220 s. To `COc1cc(NC(=O)C2CCN(S(=O)(=O)c3ccc4c(c3)CCCC(=O)N4)CC2)cc(OC)c1` belongs 762 s; to `Cc1nc(CNC(=O)c2ccc(-c3noc(C4CC4)n3)cc2)no1`, 717 s.

The values are drawn from the METLIN SMRT retention time set (Domingo-Almenara et al. 2019).
